Data: ChEMBL document CHEMBL1955786, “New antitumor compounds from Carya cathayensis” (Bioorg Med Chem Lett, 2012)
Calls of active or inactive are those of the source. The rule behind the calls is not given here.

Key:
Format in all cases: functional, cell-based
HT-29 [1] = assay: Cytotoxicity against human HT-29 cells at 10 to 100 uM after 48 hrs by MTT assay
HCT-116 = assay: Cytotoxicity against human HCT116 cells at 10 to 100 uM after 48 hrs by MTT assay
A549 [2] = assay: Cytotoxicity against human A549 cells at 10 to 100 uM after 48 hrs by MTT assay
MCF7 [3] = assay: Cytotoxicity against human MCF7 cells at 10 to 100 uM after 48 hrs by MTT assay
HT-29 [4] = assay: Cytotoxicity against human HT-29 cells after 48 hrs by MTT assay
A549 [5] = assay: Cytotoxicity against human A549 cells after 48 hrs by MTT assay
MCF7 [6] = assay: Cytotoxicity against human MCF7 cells after 48 hrs by MTT assay

Compound | Activity (HT-29 [1]) | Activity (HCT-116) | Activity (A549 [2]) | Activity (MCF7 [3]) | Activity (HT-29 [4]) | Activity (A549 [5]) | Activity (MCF7 [6])
COc1cc([C@H]2Oc3c(OC)cc(/C=C/C=O)cc3[C@@H]2CO)ccc1O | Active | Active | Active | Active | Dose-dependent effect | Dose-dependent effect | Dose-dependent effect
COc1cc(/C=C\C=O)ccc1O | Active | Active | Active | Active | Dose-dependent effect | Dose-dependent effect | Dose-dependent effect
COc1cc(O)cc(C=O)c1 | Active | Active | Active | Active |  |  | 
COc1cc([C@@H]2Oc3c(OC)cc(/C=C/C=O)cc3[C@H]2CO)ccc1O | Active | Active | Active | Active | Dose-dependent effect | Dose-dependent effect | Dose-dependent effect
OC[C@@H]1[C@@H](Cc2ccc(O)cc2)CO[C@H]1c1ccc(O)cc1 | Active | inactive | Active | Active | Dose-dependent effect | Dose-dependent effect | Dose-dependent effect
O=C/C=C\c1ccc(O)cc1 | Active | Active | Active | Active |  |  | 
O=Cc1ccc(O)cc1 | Active | Active | Active | Active |  |  | 
COc1cc(C(=O)C(CO)c2ccc(O)c(OC)c2)ccc1O (centres undefined) | Active | Active | Active | Active |  |  | 
